Results on 57 compounds are retold here after patent US8211929B2, “Pyrimidine derivatives as kinase modulators and method of use” (Exelixis, Inc., priority 2004, dated 2012).

Assay [1] addresses T1, (Homo sapiens, UniProt P08069).
T1 construct: human IGF1R kinase domain residues M954-C1367; made in house; host or cells: baculovirus expression (insect cells)
Kind of assay: IGF1R kinase assay (LCCA), IGF 0P. The class given is biochemical. To be noted: IGF1R kinase LCCA assay. In a few lines:
(§1)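 Read-out is percent ATP remaining, detected by luciferase-luciferin luminescence after a 2 h ambient reaction. Reaction contained 4 nM IGF1R kinase domain (residues M954-C1367, baculovirus-made), 3 μM ATP (near KM), 4 μM poly EY, pH 7.5 with Mg2+/Mn2+. Ten inhibitor concentrations; IC50 by Hill-type curve fit.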

The next assay concerns the target T2, IGF 3P (Homo sapiens, UniProt P08069).
T2 construct: human IGF1R kinase domain residues M954-C1367; made in house; host or cells: baculovirus expression (insect cells)
Description: IGF1R kinase assay (LCCA), IGF 3P. The assay is classed as biochemical. The following applies: IGF1R kinase LCCA assay. In a few lines: as §1

Structures are written as SMILES. pIC50: −log10 of the molar value.

T2 sequence (P08069 954-1367): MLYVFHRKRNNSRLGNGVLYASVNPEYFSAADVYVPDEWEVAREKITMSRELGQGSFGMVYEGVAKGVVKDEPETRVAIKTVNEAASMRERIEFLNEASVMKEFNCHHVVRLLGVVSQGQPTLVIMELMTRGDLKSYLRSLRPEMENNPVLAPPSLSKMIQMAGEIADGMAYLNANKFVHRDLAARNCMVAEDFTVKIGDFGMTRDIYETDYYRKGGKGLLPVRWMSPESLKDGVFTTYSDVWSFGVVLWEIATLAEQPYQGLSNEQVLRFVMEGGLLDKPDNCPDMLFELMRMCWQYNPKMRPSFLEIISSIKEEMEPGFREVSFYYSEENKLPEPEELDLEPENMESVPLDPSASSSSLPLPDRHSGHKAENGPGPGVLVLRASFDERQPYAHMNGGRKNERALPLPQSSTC
T1 sequence (P08069 954-1367): as above

Consider `Cc1cc(C)cc(Nc2nc(C)cc(Nc3cc(C4CC4)n[nH]3)n2)c1` [Example 270], for which the pIC50 in assay [1] is 5.30 to 6.30; against IGF 3P it was less than 5.30.
The like results for `Brc1cnc(NCc2cc(-c3ccccc3)cs2)nc1Nc1cc(C2CC2)n[nH]1` [Example 271] were, in that order, less than 5.30 and less than 5.30.
As to `Clc1ccccc1CCNc1ncc(Br)c(Nc2cc(C3CC3)n[nH]2)n1` [Example 272], the pIC50 (in assay [1]; at IGF 3P) was less than 5.30 each time.
Regarding `Cc1cc(Nc2cc(C3CC3)n[nH]2)nc(Nc2cc(Cl)cc(Cl)c2)n1` [Example 274], the pIC50 in assay [1] is 5.30 to 6.30; on IGF 3P, less than 5.30.
The like results for `Clc1ccc(-c2cc(CNc3ncc(Br)c(Nc4cc(C5CC5)[nH]n4)n3)on2)cc1` [Example 275] were, in that order, 5.30 to 6.30 and less than 5.30.
With `O=C(Nc1ccccc1)c1nc(Nc2ccccc2Cl)nc(Nc2cc(C3CC3)n[nH]2)c1[N+](=O)[O-]` [Example 276], the pIC50 was 5.30 to 6.30 in assay [1] and less than 5.30 at IGF 3P.
The like results for `COc1ccc(-c2cc(CNc3ncc(Br)c(Nc4cc(C5CC5)[nH]n4)n3)on2)cc1` [Example 277] were, in that order, less than 5.30 and less than 5.30.
The like results for `O=C(Nc1ccc(N2CCOCC2)cc1)c1nc(Nc2ccccc2Cl)nc(Nc2cc(C3CC3)n[nH]2)c1[N+](=O)[O-]` [Example 278] were, in that order, less than 5.30 and less than 5.30.
The like results for `O=C(Nc1ncc(Br)c(Nc2cc(C3CC3)[nH]n2)n1)c1ccccc1Cl` [Example 279] were, in that order, less than 5.30 and less than 5.30.
As for `CC(=O)Nc1cnc(Nc2ccccc2Cl)nc1Nc1cc(C2CC2)n[nH]1` [Example 280], the pIC50 (in assay [1]; at IGF 3P) was less than 5.30 throughout.
In the case of `c1ccc(CN2CCc3c(nc(Nc4ccc(N5CCOCC5)cc4)nc3Nc3cc(C4CC4)[nH]n3)C2)cc1` [Example 281], the pIC50 (in assay [1]; at IGF 3P) was less than 5.30 each time.
Consider `c1cc(N2CCOCC2)ccc1Nc1nc2c(c(Nc3cc(C4CC4)[nH]n3)n1)CCNC2` [Example 282], for which the pIC50 (in assay [1]; on IGF 3P) was less than 5.30 in each case.
Consider `c1ccc(-c2cc(CNc3nc4c(c(Nc5cc(C6CC6)[nH]n5)n3)CCNC4)on2)cc1` [Example 283], for which the pIC50 (in assay [1]; at IGF 3P) was less than 5.30 each time.
Take `Nc1nc(C2CC2)nn1-c1nc(Nc2ccc(N3CCOCC3)cc2)ncc1Br` [Example 284]: the negative-log IC50 (pIC50) (in assay [1]; against IGF 3P) was less than 5.30 each time.
Turning to `Nc1ncnn1-c1nc(Nc2ccc(N3CCOCC3)cc2)ncc1Br` [Example 285], the pIC50 (in assay [1]; against IGF 3P) was less than 5.30 each time.
Take `Clc1ccccc1Nc1ncc(Br)c(Nc2cc(C3CC3)on2)n1` [Example 286]: the pIC50 (in assay [1]; against IGF 3P) was less than 5.30 in each case.
On to `Nc1nc(Nc2ccc(N3CCOCC3)cc2)ncc1Br` [Example 287], for which the pIC50 (in assay [1]; at IGF 3P) was less than 5.30 each time.
For the compound `FC(F)(F)c1ccc(-c2ncc(CNc3ncc(Br)c(Nc4cc(C5CC5)[nH]n4)n3)s2)cc1` [Example 288], the negative-log IC50 (pIC50) (in assay [1]; against IGF 3P) was less than 5.30 in each case.
Consider `Clc1ccc(-c2ncc(CNc3ncc(Br)c(Nc4cc(C5CC5)[nH]n4)n3)s2)cc1` [Example 289], for which the pIC50 (in assay [1]; on IGF 3P) was less than 5.30 each time.
For the compound `Clc1cccc(-c2ncc(CNc3ncc(Br)c(Nc4cc(C5CC5)[nH]n4)n3)s2)c1` [Example 290], the pIC50 (in assay [1]; at IGF 3P) was less than 5.30 each time.
As to `Nc1cccc(Nc2nc(NCc3cc(-c4ccccc4)no3)ncc2Br)n1` [Example 291], the pIC50 (in assay [1]; against IGF 3P) was less than 5.30 throughout.
As for `Brc1cnc(NCc2cc(-c3ccccc3)no2)nc1Nc1ccccc1` [Example 292], the pIC50 (in assay [1]; on IGF 3P) was less than 5.30 in each case.
On to `CCCCNc1cc(C)nc(NCc2cc(-c3ccccc3)no2)n1` [Example 293], for which the negative logarithm of the IC50 (pIC50) (in assay [1]; at IGF 3P) was less than 5.30 in each case.
As for `CCCCNc1cc(C)nc(Nc2ccc(N3CCOCC3)cc2)n1` [Example 294], the negative logarithm of the IC50 (pIC50) (in assay [1]; against IGF 3P) was less than 5.30 in each case.
As to `Cc1cc(Nc2cc(C)on2)nc(Nc2ccc(N3CCOCC3)cc2)n1` [Example 295], the negative-log IC50 (pIC50) (in assay [1]; on IGF 3P) was less than 5.30 in each case.
On to `Cc1cc(Nc2nc(NCc3cc(-c4ccccc4)no3)ncc2Br)no1` [Example 296], for which the pIC50 (in assay [1]; against IGF 3P) was less than 5.30 in each case.
Consider `Cc1cc(Nc2ccc3ccccc3c2)nc(Nc2ccc(N3CCOCC3)cc2)n1` [Example 297], for which the negative-log IC50 (pIC50) (in assay [1]; on IGF 3P) was less than 5.30 throughout.
In the case of `Cc1cc(NCc2ccccc2)nc(NCc2cc(-c3ccccc3)no2)n1` [Example 298], the pIC50 (in assay [1]; against IGF 3P) was less than 5.30 throughout.
On to `Cc1cc(Nc2ccc3ccccc3c2)nc(NCc2cc(-c3ccccc3)no2)n1` [Example 299], for which the pIC50 (in assay [1]; on IGF 3P) was less than 5.30 throughout.
Take `Cc1cc(Nc2cc(C3CC3)n[nH]2)nc(Nc2cc(C(F)(F)F)cc(C(F)(F)F)c2)n1` [Example 300]: the negative-log IC50 (pIC50) (in assay [1]; on IGF 3P) was less than 5.30 each time.
With `Cc1cc(Nc2cc(C3CC3)n[nH]2)nc(Nc2cc(Br)cc(C(F)(F)F)c2)n1` [Example 301], the pIC50 (in assay [1]; against IGF 3P) was less than 5.30 each time.
As for `COc1cc(Nc2nc(C)cc(Nc3cc(C4CC4)n[nH]3)n2)cc(C(F)(F)F)c1` [Example 302], the negative-log IC50 (pIC50) (in assay [1]; on IGF 3P) was less than 5.30 each time.
With `Clc1cc(Cl)cc(Nc2ncc(Br)c(Nc3cc(C4CC4)n[nH]3)n2)c1` [Example 303], the pIC50 (in assay [1]; at IGF 3P) was less than 5.30 in each case.
For `FC(F)(F)c1cc(Nc2ncc(Br)c(Nc3cc(C4CC4)n[nH]3)n2)cc(C(F)(F)F)c1` [Example 304], the pIC50 (in assay [1]; on IGF 3P) was less than 5.30 each time.
As to `FC(F)(F)c1cc(Br)cc(Nc2ncc(Br)c(Nc3cc(C4CC4)n[nH]3)n2)c1` [Example 305], the pIC50 (in assay [1]; at IGF 3P) was less than 5.30 each time.
Turning to `Cc1cc(Nc2n[nH]cc2C#N)nc(NCc2cc(-c3ccccc3)no2)n1` [Example 306], the pIC50 (in assay [1]; on IGF 3P) was less than 5.30 each time.
In the case of `Cc1cc(Nc2cc(C)on2)nc(NCc2cc(-c3ccccc3)no2)n1` [Example 307], the pIC50 (in assay [1]; on IGF 3P) was less than 5.30 each time.
On to `Cc1cc(N2CCN(C)CC2)nc(N2CCN(C)CC2)n1` [Example 308], for which the pIC50 (in assay [1]; on IGF 3P) was less than 5.30 in each case.
In the case of `Cc1cc(Nc2ccccc2)nc(Nc2ccc(CCC(=O)NCCN3CCCC3)cc2)n1` [Example 309], the pIC50 (in assay [1]; at IGF 3P) was less than 5.30 each time.
`CCN(CC)CCNC(=O)CCc1ccc(Nc2nc(C)cc(Nc3ccccc3)n2)cc1` [Example 310]: the negative logarithm of the IC50 (pIC50) (in assay [1]; against IGF 3P) was less than 5.30 in each case.
On to `c1cc(Nc2ccon2)nc(Nc2ccc(N3CCOCC3)cc2)n1` [Example 311], for which the pIC50 (in assay [1]; at IGF 3P) was less than 5.30 in each case.
As for `Fc1cc(F)cc(Nc2ncc(Br)c(Nc3cc(C4CC4)n[nH]3)n2)c1` [Example 313], the pIC50 (in assay [1]; on IGF 3P) was less than 5.30 each time.
Turning to `Nc1ncc(Br)c(Nc2cc(C3CC3)[nH]n2)n1` [Example 314], the pIC50 (in assay [1]; at IGF 3P) was less than 5.30 each time.
As for `CC(C)(C)OC(=O)N1CCC(CNc2ncc(Br)c(Nc3cc(C4CC4)n[nH]3)n2)CC1` [Example 315], the pIC50 (in assay [1]; at IGF 3P) was less than 5.30 throughout.
`Brc1cnc(Nc2ccncc2)nc1Nc1cc(C2CC2)[nH]n1` [Example 316]: the pIC50 (in assay [1]; at IGF 3P) was less than 5.30 each time.
For `Brc1cnc(Nc2cc(-c3ccccc3)n[nH]2)nc1Nc1cc(-c2ccccc2)n[nH]1` [Example 319], the negative logarithm of the IC50 (pIC50) (in assay [1]; against IGF 3P) was less than 5.30 each time.
Regarding `Brc1cnc(Nc2ccc(OCc3ccccc3)cc2)nc1Nc1cc(C2CC2)n[nH]1` [Example 320], the negative logarithm of the IC50 (pIC50) (in assay [1]; on IGF 3P) was less than 5.30 each time.
Consider `Brc1cnc(Nc2ccc(Oc3ccccc3)cc2)nc1Nc1cc(C2CC2)[nH]n1` [Example 321], for which the negative-log IC50 (pIC50) (in assay [1]; against IGF 3P) was less than 5.30 each time.
As to `Brc1cnc(Nc2ccc(-c3ccccc3)cc2)nc1Nc1cc(C2CC2)[nH]n1` [Example 322], the negative logarithm of the IC50 (pIC50) (in assay [1]; against IGF 3P) was less than 5.30 throughout.
On to `Brc1cnc(NCc2cc(-c3ccccc3)no2)nc1Nc1cc(-c2ccccc2)n[nH]1` [Example 323], for which the negative logarithm of the IC50 (pIC50) (in assay [1]; against IGF 3P) was less than 5.30 in each case.
In the case of `Clc1ccc(-c2ccc(CNc3ncc(Br)c(Nc4cc(C5CC5)n[nH]4)n3)s2)cc1` [Example 324], the negative-log IC50 (pIC50) (in assay [1]; against IGF 3P) was less than 5.30 throughout.
In the case of `Clc1cc(Nc2ncc(Br)c(Nc3cc(C4CC4)n[nH]3)n2)cc(Cl)c1Cl` [Example 325], the pIC50 (in assay [1]; against IGF 3P) was less than 5.30 throughout.
As for `CC(C)(C)OC(=O)N1CCC(Nc2ncc(Br)c(Nc3cc(C4CC4)[nH]n3)n2)CC1` [Example 326], the pIC50 (in assay [1]; against IGF 3P) was less than 5.30 in each case.
In the case of `Nc1ccc(Nc2nc(Nc3cc(C4CC4)n[nH]3)ncc2Br)cc1` [Example 327], the pIC50 (in assay [1]; at IGF 3P) was less than 5.30 throughout.
Consider `Brc1cnc(NCCC(c2ccccc2)c2ccccc2)nc1Nc1cc(C2CC2)[nH]n1` [Example 328], for which the pIC50 (in assay [1]; at IGF 3P) was less than 5.30 each time.
`Brc1cnc(NCC(c2ccccc2)c2ccccc2)nc1Nc1cc(C2CC2)[nH]n1` [Example 329]: the pIC50 (in assay [1]; against IGF 3P) was less than 5.30 in each case.
For `Brc1cnc(Nc2cccc(Oc3ccccc3)c2)nc1Nc1cc(C2CC2)n[nH]1` [Example 330], the pIC50 (in assay [1]; at IGF 3P) was less than 5.30 each time.

For orientation: pIC50 means −log10 of the IC50, conventionally taken in molar units.
